Experiments:
proteasome β5 subunit = proteasome β5 subunit (Homo sapiens, UniProt P28074); experiment: Competition assay versus MVB003 in HEK293T lysate, β5 band; type: biochemical
[1] = tested on: proteasome in living HEK cells
proteasome β1 subunit [2] = molecular target: T1, proteasome β1 subunit (Homo sapiens, UniProt P28072); experiment: Competition assay versus MVB003 in HEK293T lysate, β1 band; type: biochemical
proteasome β2 subunit = proteasome β2 subunit (Homo sapiens, UniProt Q99436); experiment: Competition assay versus MVB003 in HEK293T lysate, β2 band; type: biochemical
proteasome β1 subunit [3] = molecular target: T1, proteasome β1 subunit; experiment: Competition assay versus MVB003 in living HEK cells, β1 band; type: cell-based; settings: inhibitor 4 h

CC(C)C[C@H](NC(=O)[C@@H](NC(=O)N[C@H](C(=O)NCc1ccccc1)C(C)C)C(C)C)C(=O)N[C@@H](CC(C)C)C(=O)[C@@]1(C)CO1 [Compound 15, Benzylamide-Val-urea-Val-Leu2-EK]
Fold lower concentration for β5 inhibition compared to SylA (proteasome β5 subunit; HEK lysate, Fig. 7): about 100 fold | Cell permeability [1]: cell permeable

CCCCCCCCCCNC(=O)N[C@H](C(=O)N[C@@H](CC(C)C)C(=O)N[C@@H](CC(C)C)C(=O)[C@@]1(C)CO1)C(C)C [Compound 16, Decyl-urea-Val-Leu2-EK]
IC50 (proteasome β1 subunit [2]): > 50 µM | IC50 (proteasome β2 subunit): > 50 µM

CC(C)C[C@H](NC(=O)[C@@H](NC(=O)N[C@H](C(=O)NCc1ccccc1)C(C)C)C(C)C)C(=O)[C@@]1(C)CO1 [Compound 7, Benzylamide-Val-urea-Val-Leu-EK]
IC50 (proteasome β5 subunit): 2.9 µM | IC50 (proteasome β1 subunit [2]): 0.52 µM | IC50 (proteasome β2 subunit): > 50 µM

CC(C)C[C@H](NC(=O)[C@@H](NC(=O)N[C@H](C(=O)O)C(C)C)C(C)C)C(=O)[C@@]1(C)CO1 [Compound 6, HO-Val-urea-Val-Leu-EK]
IC50 (proteasome β5 subunit): > 50 µM | IC50 (proteasome β1 subunit [2]): 1.4 µM | IC50 (proteasome β2 subunit): > 50 µM

CC(C)C[C@H](NC(=O)[C@@H](NC(=O)N[C@H](C(=O)O)C(C)C)C(C)C)C(=O)N[C@@H](CC(C)C)C(=O)[C@@]1(C)CO1 [Compound 14, HO-Val-urea-Val-Leu2-EK]
IC50 (proteasome β5 subunit): 0.48 µM

CC(C)C[C@H](NC(=O)[C@@H](NC(=O)N[C@H](C(=O)OC(C)(C)C)C(C)C)C(C)C)C(=O)[C@@]1(C)CO1 [Compound 5, tBuO-Val-urea-Val-Leu-EK2]
IC50 (proteasome β5 subunit): ~50 µM | IC50 (proteasome β1 subunit [2]): 0.46 µM | IC50 (proteasome β2 subunit): > 50 µM | Potency in living HEK cells relative to NC001 (proteasome β1 subunit [3]): fivefold higher potency

CC(C)C[C@H](NC(=O)[C@@H](NC(=O)N[C@H](C(=O)OC(C)(C)C)C(C)C)C(C)C)C(=O)N[C@@H](CC(C)C)C(=O)[C@@]1(C)CO1 [Compound 13, tBuO-Val-urea-Val-Leu2-EK]
IC50 (proteasome β5 subunit): 0.016 µM | Fold lower concentration for β5 inhibition compared to SylA (proteasome β5 subunit; HEK lysate, Fig. 7): about 100 fold | Inhibition of β5 in HEK lysate (proteasome β5 subunit; HEK lysate, at 100 nM inhibitor, Fig. 7): fully inhibits | IC50 (proteasome β1 subunit [2]): 1.3 µM | IC50 (proteasome β2 subunit): 0.69 µM | Cell permeability [1]: cell permeable
